In one data set the target is T1, TACE (Homo sapiens, UniProt P78536).
T1 construct: purchased Immunex
Nature of the data set: Procedure for measuring TACE inhibition (fluorescent peptidyl substrate). It is filed as biochemical. Here is the method: […] The reaction is initiated by addition of a fluorescent peptidyl substrate (final concentration 100 μM) to each well and then shaking on a shaker for 5 sec.
The reaction is read (excitation 340 nm, emission 420 nm) for 10 min. and the increase in fluorescence over time is plotted as a linear line. The slope of the line is calculated and represents the reaction rate.
The linearity of the reaction rate is confirmed (r^2>0.85). The mean (x±sem) of the control rate is calculated and compared for statistical significance (p<0.05) with drug-treated rates using Dunnett's multiple comparison test. Dose-response relationships can be generate using multiple doses of drug and IC50 values with 95% CI are estimated using linear regression.

For data set [1], the target named is T2, MMP1 (human recombinant fibroblast collagenase) (Homo sapiens, UniProt P03956).
T2 construct: human recombinant fibroblast collagenase (truncated, mw=18,828, WAR, Radnor)
T2 sequence (P03956 100-269 limits assumed): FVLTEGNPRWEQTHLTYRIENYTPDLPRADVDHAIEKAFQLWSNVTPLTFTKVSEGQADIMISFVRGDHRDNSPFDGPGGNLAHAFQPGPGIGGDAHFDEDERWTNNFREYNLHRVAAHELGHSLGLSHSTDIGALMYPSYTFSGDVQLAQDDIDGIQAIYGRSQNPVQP
Briefly: In vitro collagenase assay (fluorogenic peptide substrate). It is filed as biochemical. The conditions noted are these: read-out: MMP1 (1C50). Here is the method: The assay is based on the cleavage of a peptide substrate ((Dnp-Pro-Cha-Gly-Cyns(Me)-His-Ala-Lys(NMa)-NH2), Peptide International, Inc.) by collagenase releasing the fluorescent NMa group which is quantitated on the fluorometer. Dnp quenches the NMa fluorescence in the intact substrate. The assay is run in HCBC assay buffer (50 mM HEPES, pH 7.0, 5 mM Ca^+2, 0.02% Brij, 0.5% Cysteine), with human recombinant fibroblast collagenase (truncated, mw=18,828, WAR, Radnor). Substrate is dissolved in methanol and stored frozen in 1 mM aliquots. Collagenase is stored frozen in buffer in 25 μM aliquots. For the assay, substrate is dissolved in HCBC buffer to a final concentration of 10 μM and collagenase to a final concentration of 5 nM. Compounds are dissolved in methanol, DMSO, or HCBC. The methanol and DMSO are diluted in HCBC to <1.0%. Compounds are added to the 96 well plate containing enzyme and the reaction is started by the addition of substrate.
The reaction is read (excitation 340 nm, emission 444 nm) for 10 min. and the increase in fluorescence over time is plotted as a linear line. The slope of the line is calculated and represents the reaction rate.
(§1) The linearity of the reaction rate is confirmed (r^2>0.85). The mean (x±sem) of the control rate is calculated and compared for statistical significance (p<0.05) with drug-treated rates using Dunnett's multiple comparison test. […]

Data set [2] concerns the target T3, MMP9 (human neutrophil gelatinase B) (Homo sapiens, UniProt P14780).
T3 construct: from tissue; host or cells: human neutrophils
Nature of the data set: In vitro gelatinase assay (thiopeptide substrate, DTNB). It is filed as biochemical. Here is the method: The assay is based on the cleavage of the thiopeptide substrate ((Ac-Pro-Leu-Gly(2 mercapto-4 methyl-pentanoyl)-Leu-Gly-OEt), Bachem Bioscience) by the enzyme, gelatinase, releasing the substrate product which reacts calorimetrically with DTNB ((5,5′-dithio-bis(2-nitro-benzoic acid)). The enzyme activity is measured by the rate of the color increase.
The thiopeptide substrate is made up fresh as a 20 mM stock in 100% DMSO and the DTNB is dissolved in 100% DMSO as a 100 mM stock and stored in dark at room temperature. Both the substrate and DTNB are diluted together to 1 mM with substrate buffer (50 mM HEPES pH 7.5, 5 mM CaCl2) before use. The stock of human neutrophil gelatinase B is diluted with assay buffer (50 mM HEPES pH 7.5, 5 mM CaCl2, 0.02% Brij) to a final concentration of 0.15 nM. The assay buffer, enzyme, DTNB/substrate (500 μM final concentration) and vehicle or inhibitor are added to a 96 well plate (total reaction volume of 200 μl ) and the increase in color is monitored spectrophotometrically for 5 minutes at 405 nm on a plate reader.
The increase in OD405 is plotted and the slope of the line is calculated which represents the reaction rate.
as §1

In another data set the target is MMP13 (Homo sapiens, UniProt P45452). Briefly: MMP13 inhibition. It is filed as biochemical.

Where a name gives a salt, the structure may show the parent alone.

T1 sequence (P78536 215-824): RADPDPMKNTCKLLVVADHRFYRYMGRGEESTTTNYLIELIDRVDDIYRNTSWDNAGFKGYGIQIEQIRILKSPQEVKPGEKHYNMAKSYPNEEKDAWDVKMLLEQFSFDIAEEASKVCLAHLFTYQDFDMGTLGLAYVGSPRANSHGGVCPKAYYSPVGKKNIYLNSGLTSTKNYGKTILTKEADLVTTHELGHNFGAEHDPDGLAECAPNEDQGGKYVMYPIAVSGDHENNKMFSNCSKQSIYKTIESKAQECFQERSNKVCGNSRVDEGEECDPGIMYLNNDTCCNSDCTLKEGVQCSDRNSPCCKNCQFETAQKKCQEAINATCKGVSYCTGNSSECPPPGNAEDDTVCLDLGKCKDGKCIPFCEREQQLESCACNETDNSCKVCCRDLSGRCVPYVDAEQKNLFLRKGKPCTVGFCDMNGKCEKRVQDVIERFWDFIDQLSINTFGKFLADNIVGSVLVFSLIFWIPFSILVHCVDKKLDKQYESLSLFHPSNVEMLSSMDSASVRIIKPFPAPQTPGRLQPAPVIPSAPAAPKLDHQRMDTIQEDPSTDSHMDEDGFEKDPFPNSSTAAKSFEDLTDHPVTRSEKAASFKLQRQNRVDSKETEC
T3 sequence (P14780 94-707): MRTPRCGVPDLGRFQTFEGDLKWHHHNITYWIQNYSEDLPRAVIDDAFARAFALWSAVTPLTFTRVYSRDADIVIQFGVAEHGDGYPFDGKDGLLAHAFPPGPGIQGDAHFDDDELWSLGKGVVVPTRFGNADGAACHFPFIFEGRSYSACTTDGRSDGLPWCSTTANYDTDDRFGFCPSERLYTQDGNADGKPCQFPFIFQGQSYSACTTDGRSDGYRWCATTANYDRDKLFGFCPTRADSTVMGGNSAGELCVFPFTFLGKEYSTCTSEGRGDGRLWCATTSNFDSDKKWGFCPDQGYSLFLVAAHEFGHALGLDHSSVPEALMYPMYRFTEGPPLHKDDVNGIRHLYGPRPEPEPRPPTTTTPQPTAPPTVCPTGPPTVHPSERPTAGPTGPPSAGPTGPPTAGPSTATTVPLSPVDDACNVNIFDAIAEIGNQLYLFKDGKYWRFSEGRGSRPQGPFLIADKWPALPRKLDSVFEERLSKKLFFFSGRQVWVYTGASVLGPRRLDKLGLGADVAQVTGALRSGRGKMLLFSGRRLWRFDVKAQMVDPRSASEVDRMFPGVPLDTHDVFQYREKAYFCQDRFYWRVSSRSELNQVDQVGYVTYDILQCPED

Take `COc1ccc(S(=O)(=O)C2(C(=O)NO)CCCN(Cc3ccccc3)C2)cc1` (centres unmarked) (as salt: hydrochloride) [Example 18, 1-Benzyl-3-(4-methoxybenzenesulfonyl)piperidine-3-carboxylic acid hydroxamide]: the melting point (usually the temperature, or range, at which the solid turns liquid) worked out at 132.9 °C.
`COc1ccc(S(=O)(=O)C2(C(=O)NO)CCCN(Cc3ccccc3)C2)cc1` (centres unmarked) [Example 18, 1-Benzyl-3-(4-methoxybenzenesulfonyl)piperidine-3-carboxylic acid hydroxamide]: the inhibition (usually how much of the control response was suppressed) at 10 µM against TACE was found to be 54%. Moreover, the IC50 in data set [1] is 1.3 µM; in data set [2] it was 0.732 µM; at MMP13 it was 0.14 µM.

The values above are taken from patent publication US20020099035A1, “Method for preparing alpha-sulfonyl hydroxamic acid derivatives” (priority 2001, published 2002).
